We go through 13 compounds from patent US9822147B2, “Methods of treating ophthalmic diseases using NPR-B agonists” (priority 2009, dated 2017).

Numbered stars: 1 amine (or outer) side, 2 acyl side, 3 side chain; on linkers, the order of the positions; unused ones are H or OH. Square brackets hold non-standard residues; d marks the D form. Peptide text beside a SMILES is read from it. * marks the point of attachment. Pro(4R-NH2) = N[C@H]1CN[C@H](C(=O)O)C1; dLys(Me2) = CN(C)CCCC[C@@H](N)C(=O)O; dOrn(Me2) = CN(C)CCC[C@@H](N)C(=O)O; X2 = O=C([C@H]1CCCN([*:1])C1)[*:2]; dDap(Me2) = CN(C)C[C@@H](N)C(=O)O; Hyp = O=C(O)[C@@H]1C[C@@H](O)CN1; NHcycloheptyl = C1CCCC(N*)CC1; NMeL = CN[C@@H](CC(C)C)C(=O)O; Ac6c = NC1(C(=O)O)CCCCC1; Octanoyl = CCCCCCCC(=O)*

This experiment addresses T1, NPR-B (Homo sapiens, UniProt P20594).
T1 construct: a functional assay using endogenously NPR-B expressing GTM-3 cells; endogenous in cells; host or cells: GTM-3 (human glaucoma trabecular meshwork cells)
T1 sequence (P20594 23-1047): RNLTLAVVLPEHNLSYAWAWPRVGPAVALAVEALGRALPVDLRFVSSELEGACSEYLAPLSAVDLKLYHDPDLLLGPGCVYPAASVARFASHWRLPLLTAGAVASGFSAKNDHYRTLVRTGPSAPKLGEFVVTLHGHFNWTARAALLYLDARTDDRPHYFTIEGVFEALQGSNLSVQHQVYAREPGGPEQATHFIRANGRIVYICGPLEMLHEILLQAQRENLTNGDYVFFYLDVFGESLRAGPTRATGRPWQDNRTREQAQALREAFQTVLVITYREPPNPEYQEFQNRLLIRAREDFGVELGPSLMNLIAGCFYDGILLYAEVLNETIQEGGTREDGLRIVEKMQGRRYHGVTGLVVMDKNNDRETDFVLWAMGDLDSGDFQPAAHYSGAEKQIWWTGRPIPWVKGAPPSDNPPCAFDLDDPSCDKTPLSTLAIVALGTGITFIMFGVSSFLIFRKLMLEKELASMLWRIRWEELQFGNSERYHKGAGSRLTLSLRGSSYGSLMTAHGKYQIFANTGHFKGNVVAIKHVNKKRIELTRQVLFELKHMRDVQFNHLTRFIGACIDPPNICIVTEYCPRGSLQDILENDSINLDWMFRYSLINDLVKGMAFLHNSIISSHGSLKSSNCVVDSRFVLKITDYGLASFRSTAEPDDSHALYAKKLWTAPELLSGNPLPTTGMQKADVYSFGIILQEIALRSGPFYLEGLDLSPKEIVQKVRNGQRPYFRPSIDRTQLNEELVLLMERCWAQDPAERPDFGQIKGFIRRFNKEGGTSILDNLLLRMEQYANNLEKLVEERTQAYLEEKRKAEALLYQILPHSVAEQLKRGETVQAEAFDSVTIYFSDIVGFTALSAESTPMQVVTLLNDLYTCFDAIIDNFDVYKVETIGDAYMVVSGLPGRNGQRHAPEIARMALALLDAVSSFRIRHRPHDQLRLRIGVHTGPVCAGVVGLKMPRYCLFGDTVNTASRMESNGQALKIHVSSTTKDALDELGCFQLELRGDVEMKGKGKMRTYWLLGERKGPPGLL
Briefly: NPR-B induced production of cyclic GMP in human glaucoma trabecular meshwork cells (GTM-3). Format: cell-based. The conditions noted are these: group by EC50 and Emax (CNP = 100%); Table 4; read-out: Activity (group), NPR-B activation assayed with GTM-3 cells.
For `CCCCCCCC(=O)N1CCC[C@H](C(=O)N[C@@H](Cc2ccccc2)C(=O)N[C@H](CCCNC(=N)N)C(=O)N[C@@H](CC(C)C)C(=O)N2C[C@H](O)C[C@H]2C(=O)N(C)[C@@H](CC(C)C)C(=O)N[C@@H](CC(=O)O)C(=O)N[C@@H](CCCNC(=N)N)C(=O)N[C@H](C(N)=O)[C@@H](C)CC)C1` [JAL-1255, Occ-Sni-Phe-arg-Leu-Hyp-Nml-Asp-Arg-Ile-NH2] (HELM PEPTIDE1{[CCCCCCCC(=O)[*:2]].[O=C([C@H]1CCCN([*:1])C1)[*:2]].F.[dR].L.[Hyp].[meL].D.R.I.[am]}$$$$V2.0), the EC50 is below 1000 nM.

With `CCCCCCCC(=O)N[C@H](C)C(=O)N[C@@H](Cc1ccccc1)C(=O)N[C@H](CC(C)C)C(=O)N[C@@H](CC(C)C)C(=O)N1C[C@H](O)C[C@H]1C(=O)N(C)C(CC(C)(C)C)C(=O)N[C@@H](CC(=O)O)C(=O)N[C@@H](CCCNC(=N)N)C(=O)N[C@H](C(N)=O)[C@@H](C)CC` (stereo partly drawn) [JAL-1283, Occ-ala-Phe-leu-Leu-Hyp-(SH-158)-Asp-Arg-Ile-NH2] (HELM PEPTIDE1{[CCCCCCCC(=O)[*:2]].[dA].F.[dL].L.[Hyp].[CN(C(CC(C)(C)C)C(=O)[*:2])[*:1]].D.R.I.[am]}$$$$V2.0), the EC50 was below 1000 nM.

Regarding `CCCCCC[C@H](NC(=O)[C@@H]1CCCN1C(=O)[C@@H](N)CCCCN)C(=O)N1CCC[C@H](C(=O)N[C@@H](Cc2ccccc2)C(=O)N[C@H](CC(C)C)C(=O)N[C@@H](CC(C)C)C(=O)N2C[C@H](O)C[C@H]2C(=O)N(C)[C@@H](CC(C)C)C(=O)N[C@@H](CC(=O)O)C(=O)N[C@@H](CCCNC(=N)N)C(=O)N[C@H](C(N)=O)[C@@H](C)CC)C1` [JAL-1900, H-Lys-Pro-Hgl-Sni-Phe-leu-Leu-Hyp-Nml-Asp-Arg-Ile-NH2] (HELM PEPTIDE1{K.P.[CCCCCC[C@H](N[*:1])C(=O)[*:2]].[O=C([C@H]1CCCN([*:1])C1)[*:2]].F.[dL].L.[Hyp].[meL].D.R.I.[am]}$$$$V2.0), the EC50 is below 1000 nM.

In the case of `CCCCCCCC(=O)N[C@H](C)C(=O)N[C@@H](Cc1ccccc1)C(=O)NC1(C(=O)N[C@@H](CC(C)C)C(=O)N2C[C@H](N)C[C@H]2C(=O)N(C)[C@@H](CC(C)C)C(=O)N[C@@H](CC(=O)O)C(=O)N[C@@H](CCCNC(=N)N)C(=O)N[C@H](C(N)=O)[C@@H](C)CC)CCCCC1` [JAL-1454, Occ-ala-Phe-Egz-Leu-Tap-Nml-Asp-Arg-Ile-NH2] (Octanoyl-[dA]F[Ac6c]L[Pro(4R-NH2)][NMeL]DRI-NH2), the EC50 is below 1000 nM.

With `CCCCCCCC(=O)N[C@H](C)C(=O)N[C@@H](Cc1ccc(Br)cc1)C(=O)N[C@H](CCCNC(=N)N)C(=O)N[C@@H](CC(C)C)C(=O)N1C[C@H](O)C[C@H]1C(=O)N[C@@H](CC(C)C)C(=O)N[C@@H](CC(=O)O)C(=O)N[C@@H](CCCNC(=N)N)C(=O)N[C@H](C(N)=O)[C@@H](C)CC` [JAL-1116, Occ-ala-Pbf-arg-Leu-Hyp-Leu-Asp-Arg-Ile-NH2] (HELM PEPTIDE1{[CCCCCCCC(=O)[*:2]].[dA].[O=C([C@H](Cc1ccc(Br)cc1)N[*:1])[*:2]].[dR].L.[Hyp].L.D.R.I.[am]}$$$$V2.0), the EC50 was below 1000 nM.

For the compound `CCCCCCCC(=O)N[C@H](C)C(=O)N(C)[C@@H](Cc1ccccc1)C(=O)N[C@H](CC(C)C)C(=O)N[C@@H](CC(C)C)C(=O)N1C[C@H](O)C[C@H]1C(=O)N[C@@H](CC(C)C)C(=O)N[C@@H](CC(=O)O)C(=O)N[C@@H](CCCNC(=N)N)C(=O)N[C@H](C(N)=O)[C@@H](C)CC` [JAL-1052, Occ-ala-Nmf-leu-Leu-Hyp-Leu-Asp-Arg-Ile-NH2] (HELM PEPTIDE1{[CCCCCCCC(=O)[*:2]].[dA].[meF].[dL].L.[Hyp].L.D.R.I.[am]}$$$$V2.0), the EC50 was below 1000 nM.

`CCCCCCCCN1CCC[C@H](C(=O)N[C@@H](Cc2ccccc2)C(=O)N[C@H](CC(C)C)C(=O)N[C@@H](CC(C)C)C(=O)N2C[C@H](O)C[C@H]2C(=O)N(C)[C@@H](CC(C)C)C(=O)N[C@@H](CC(=O)O)C(=O)N[C@@H](CCCNC(=N)N)C(=O)N[C@H](C(N)=O)[C@@H](C)CC)C1` [JAL-1302, Oct-Sni-Phe-leu-Leu-Hyp-Nml-Asp-Arg-Ile-NH2] (HELM PEPTIDE1{[CCCCCCCCN1CCC[C@H](C(=O)[*:2])C1].F.[dL].L.[Hyp].[meL].D.R.I.[am]}$$$$V2.0): the EC50 is below 1000 nM.

Take `CCCCCCCC(=O)N[C@H](C)C(=O)N[C@@H](Cc1ccccc1)C(=O)N[C@H](CCCNC(=N)N)C(=O)N[C@@H](CC(C)C)C(=O)N1C[C@H](O)C[C@H]1C(=O)N[C@@H](CC(C)(C)C)C(=O)N[C@@H](CC(=O)O)C(=O)N[C@@H](CCCNC(=N)N)C(=O)N[C@H](C(N)=O)[C@@H](C)CC` [JAL-1225, Occ-ala-Phe-arg-Leu-Hyp-Npg-Asp-Arg-Ile-NH2] (HELM PEPTIDE1{[CCCCCCCC(=O)[*:2]].[dA].F.[dR].L.[Hyp].[CC(C)(C)C[C@H](N[*:1])C(=O)[*:2]].D.R.I.[am]}$$$$V2.0): the EC50 was below 1000 nM.

For the compound `CCCCCCCC(=O)N[C@H]1CCN([C@@H](Cc2ccccc2)C(=O)N[C@H](CC(C)C)C(=O)N[C@@H](CC(C)C)C(=O)N2C[C@H](O)C[C@H]2C(=O)N(C)[C@@H](CC(C)C)C(=O)N[C@@H](CC(=O)O)C(=O)N[C@@H](CCCNC(=N)N)C(=O)N[C@H](C(N)=O)[C@@H](C)CC)C1=O` [JAL-1671, Occ-(AFL)-leu-Leu-Hyp-Nml-Asp-Arg-Ile-NH2], the EC50 is below 1000 nM.

As to `CCCCCCCC(=O)N1CCC[C@H](C(=O)N[C@@H](Cc2ccccc2)C(=O)N[C@H](CC(C)C)C(=O)N[C@@H](CC(C)C)C(=O)N2C[C@H](N)C[C@H]2C(=O)N(C)[C@@H](CC(C)C)C(=O)N[C@@H](CC(=O)O)C(=O)N2CCC[C@H]2C(=O)N[C@H](C(N)=O)[C@@H](C)CC)C1` [JAL-1559, Occ-Sni-Phe-leu-Leu-Tap-Nml-Asp-Pro-Ile-NH2] (Octanoyl-[X2]F[dL]L[Pro(4R-NH2)][NMeL]DPI-NH2), the EC50 is below 1000 nM.

As to `CCCCCCCC(=O)N1CCC[C@H](C(=O)N[C@@H](Cc2ccccc2)C(=O)N[C@H](CCCN(C)C)C(=O)N[C@@H](CC(C)C)C(=O)N2C[C@H](O)C[C@H]2C(=O)N(C)[C@@H](CC(C)C)C(=O)N[C@H](C(=O)N[C@@H](CCCNC(=N)N)C(=O)NC2CCCCCC2)[C@@H](C)O)C1` [JAL-1895, Occ-Sni-Phe-orn(Me2)-Leu-Hyp-Nml-Thr-Arg-Che] (Octanoyl-[X2]F[dOrn(Me2)]L[Hyp][NMeL]TR-NHcycloheptyl), the EC50 was below 1000 nM.

Turning to `CCCCCCCC(=O)N[C@H](C)C(=O)N[C@@H](Cc1ccccc1)C(=O)N[C@H](CN(C)C)C(=O)N[C@@H](CC(C)C)C(=O)N1C[C@H](N)C[C@H]1C(=O)N(C)[C@@H](CC(C)C)C(=O)N[C@@H](CC(=O)O)C(=O)N1CCC[C@H]1C(=O)N[C@H](C(N)=O)[C@@H](C)CC` [JAL-1453, Occ-ala-Phe-dap(Me2)-Leu-Tap-Nml-Asp-Pro-Ile-NH2] (Octanoyl-[dA]F[dDap(Me2)]L[Pro(4R-NH2)][NMeL]DPI-NH2), the EC50 was below 1000 nM.

In the case of `CCCCCCCC(=O)N1CCC[C@H](C(=O)N[C@@H](Cc2ccccc2)C(=O)N[C@H](CCCCN(C)C)C(=O)N[C@@H](CC(C)C)C(=O)N2C[C@H](O)C[C@H]2C(=O)N(C)[C@@H](CC(C)C)C(=O)N[C@H](C(=O)N[C@@H](CCCNC(=N)N)C(=O)NC2CCCCCC2)C(C)C)C1` [JAL-1779, Occ-Sni-Phe-lys(Me2)-Leu-Hyp-Nml-Val-Arg-Che] (Octanoyl-[X2]F[dLys(Me2)]L[Hyp][NMeL]VR-NHcycloheptyl), the EC50 was below 1000 nM.
